Tests used:
[1] = Drug uptake in DIO C57BL/6J mouse serum at 0.01 mg/kg/day, sc for 2 weeks; type: ADME, organism-based; details: read-out: Drug uptake
[2] = Cmax in dog at 0.01 mg/kg/day, sc administered as infusion after 8 hrs; type: ADME, organism-based, Canis lupus familiaris; parameters: dose 0.01 mg/kg/day, route subcutaneous; details: in vivo
Canis familiaris [3] = assay: Emetic effect in Beagle dog at 0.01 mg/kg, sc measured after 1 to 24 hrs; type: organism-based, Canis lupus familiaris; details: in vivo
[4] = Tmax in Beagle dog at 0.01 mg/kg, sc; type: ADME, organism-based, Canis lupus familiaris; details: in vivo
[5] = Cmax in Beagle dog at 0.01 mg/kg, sc; type: ADME, organism-based, Canis lupus familiaris; parameters: dose 0.01 mg/kg, route subcutaneous; details: in vivo
[6] = Cmax in dog at 0.01 mg/kg, sc administered as bolus; type: ADME, organism-based, Canis lupus familiaris; parameters: dose 0.01 mg/kg, route subcutaneous; details: in vivo
[7] = Cmax in dog at 0.003 mg/kg/day, sc administered as infusion after 8 hrs; type: ADME, organism-based, Canis lupus familiaris; parameters: dose 0.003 mg/kg/day, route subcutaneous; details: in vivo
Canis familiaris [8] = assay: Emetic effect in Beagle dog at 0.01 mg/kg, sc measured after 1 hr; type: ADME, organism-based, Canis lupus familiaris; details: in vivo
Canis familiaris [9] = assay: Emetic effect in dog at 0.003 mg/kg/day, sc as infusion for 8 hrs; type: ADME, organism-based, Canis lupus familiaris; details: in vivo
Mus musculus = assay: Emetic effect in DIO C57BL/6J mouse at 0.01 mg/kg, sc for 2 weeks; type: ADME, organism-based; details: in vivo, 336 h

CC[C@](C)(NC(=O)[C@H]1C[C@H](O)CN1C(=O)[C@H](CO)NC(=O)c1c[nH]cn1)C(=O)N[C@@H](Cc1ccncc1)C(=O)N[C@@H](CC1CCCCC1)C(=O)N[C@@H](CC(C)(C)C)C(=O)N[C@@H](CC(N)=O)C(=O)N[C@@H](CCCCN)C(=O)NC(C)(C)C(=O)N[C@H](C(=O)N[C@@H](CCCNC(=N)N)C(=O)N[C@@H](CCC(N)=O)C(=O)N[C@@H](CCCNC(=N)N)C(=O)N[C@@H](CC1CCCCC1)C(N)=O)[C@@H](C)O
concentration at 336 h [1]: 0.225 ng/mL
Cmax [2]: 0.74 ng/mL
Activity (Canis familiaris [3]): Non-Toxic
Tmax [4]: 36 min
Cmax [5]: 2.9 ng/mL
Cmax [6]: 2.9 ng/mL
Cmax [7]: 0.18 ng/mL
Activity (Canis familiaris [8]): Toxic
Activity (Canis familiaris [9]): Toxic
Activity (Mus musculus): Toxic

— ChEMBL document CHEMBL4219053, “Antiobesity and emetic effects of a short-length peptide YY analog and its PEGylated and alkylated derivatives” (Bioorg Med Chem, 2018)
